Measurements published in patent US7264314B2, “Adrenocorticotropic hormone analogs and related methods” (priority 2004, dated 2007).
No end group written: not given here.

Tested on: serum corticosterone in dexamethasone-suppressed mice
Test: in vivo Serum Corticosteroid Induction Assay
Parameters: species or system FVB/N mice
Conditions: compared to unmodified mACTH(1–24); 1 μg s.c.; blood one hour after administration
Experimental: An in vivo Serum Corticosteroid Induction Assay measures the level of corticosteroid or corticosterone in the blood stream of a subject. More specifically, the in vivo Serum Corticosteroid Induction Assay can include the following steps: first, an agent to suppress endogenous ACTH production was administered to a mouse subject, such as an intraperitoneal injection of dexamethasone; second, after waiting a suitable period of time for suppression of endogenous ACTH production (e.g., 1.5–2.0 hours), a test compound can be administered to the mouse by a suitable method, such as intraperitoneal or subcutaneous injection; and third, after waiting a suitable period of time (e.g., 1 hour) for action of the injected test compound, a blood sample can be taken from the subject and the level of serum corticosterone can be determined by a suitable method, such as a competitive radioimmunoassay using ^125I RIA kit (ICN, Costa Mesa, Calif.). Example 1 describes a murine in vivo Serum Corticosteroid Induction Assay in detail.
The corticosteroid or corticosterone secretion induced in vivo by an ACTH analog compound was compared to the level of corticosteroid secretion produced by an unmodified ACTH compound by measuring blood serum corticosteroid after administering either the ACTH or ACTH analog as test compounds. […] ACTH analog compositions with decreased function were identified by measuring corticosterone levels using standard radioimmunoassay (RIA) analysis on blood samples collected one hour after administering the mACTH(1–24) or ACTH analog compound to dexamethasone-suppressed mice. In FIG. 1, the potency of various ACTH analog peptides is expressed as per cent induction of corticosterone, with mouse ACTH being 100%. […] The percent of corticosterone induction 12 of ACTH analog Compounds in Samples 2–10 are shown as a percentage of the concentration of serum corticosterone 20 measured for unmodified mACTH(1–24) in the in vivo Serum Corticosteroid Adrenal Induction Assay. The structural modifications and measured percentage reduction in serum measured for Samples 2–10 in FIG. 1 are shown in Table 3 below.
The in vivo Serum Corticosteroid Induction Assay was performed according the following method. First, two to three month-old male FVB/N mice from our colony, five per group, were injected intraperitoneally with dexamethasone (0.4 mg/0.1 ml PBS per mouse; Sigma, St. Louis, Mo.) to suppress their endogenous ACTH production. See Hajos, G T et al., “Studies of the potency of polypeptides with ACTH action by a new method based on continuous measurement of plasma corticosterone,” Steroids Lipids Res 3:225–228 (1972), Costa, J L, et al., “Mutational analysis of evolutionarily conserved ACTH residues,” Gen Comp Endocrinol, 136:12–16 (2004), and Karpac, J, et al., “Development, Maintenance, and Function of the Adrenal Gland in Early Postnatal Pro-opiomelanocortin Null Mutant Mice,” Endocrinology (2005), published online ahead of print Feb. 24, 2005, all of which are incorporated herein by reference.
Second, ninety to one hundred twenty minutes later, the dexamethasone-suppressed mice were injected subcutaneously between the shoulder blades with either unmodified mACTH(1–24) or one of several ACTH analog peptide compounds (1 μg/0.1 mL PBS/0.5% BSA), or with vehicle alone (control) (0.1 mL PBS/0.5% BSA). The following ACTH analog peptide compounds were administered to separate mice: 1: murine ACTH1–24; 2: V26F,E30K; 3: P19W,K21E,Y23R; 4: E30K,P36R; 5: ALA19–24; 6: V26F,P36R; 7: P19W, K21E; 8: P19W,K21A,delY23; 9: P19W,K21A; 10: KRRP16-19RMW (AT814) (SEQ ID NO:20).
Third, one hour later, blood was collected within less than 1 minute from a small incision in the tail, and serum was flash-frozen and stored at −80° C. until assayed. Serum corticosterone was determined by competitive radioimmunoassay (^125I RIA kit; ICN, Costa Mesa, Calif.) according to the manufacturer's recommendations. One microliter of serum was used per assay sample. […]

N-Ser^1-Tyr-Ser-Met-Glu^5-His-Phe-Arg-Trp-Gly^10-Lys-Pro-Val-Gly-Lys^15-Arg-Ala-Ala-Trp-Val^20-Lys-Val-Tyr-Pro-Ac (SYSMEHFRWGKPVGKRAAWVKVYP; not fully specified (C-terminus); printed as N-Ser1-Tyr-Ser-Met-Glu5-His-Phe-Arg-Trp-Gly10-Lys-Pro-Val-Gly-Lys15-Arg-Ala-Ala-Trp-Val20-Lys-Val-Tyr-Pro-Ac) [AT814]
Percent reduction in serum corticosteroid: 100%
